Assay: sGC-HEK-cGMP Assay: Human embryonic kidney cells (HEK293), endogenously expressing soluble guanylate cyclase (sGC), were used to evaluate the activity of test compounds. Compounds stimulating the sGC enzyme should cause an increase in the intracellular concentration of cGMP. HEK 293 cells were seeded in Dulbecco's Modification of Eagle's Medium supplemented with fetal bovine serum (10% final) and penicillin (100 U/mL)/streptomycin (100 μg/mL) in a 50 μL volume at a density of 1.5×10^4 cells/well in a poly-D-lysine coated 384 well flat bottom plate. Cells were incubated overnight at 37° C. in a humidified chamber with 5% CO2. Medium was aspirated and cells were washed with 1× Hank's Buffered Saline Salt Solution (50 μL). Cells were then incubated for 15 minutes at 37° C. with 50 μL of a 0.5 mM 3-isobutyl-1-methylxanthine (IBMX) solution. Test article and Diethylenetriamine NONOate (DETA-NONOate) solutions (x μM concentration for test article solution and 10 μM concentration for DETA-NONOate solution; wherein x is one of the following concentrations: 0.029 nM to 30000 nM). were then added to the assay mixture and the resulting mixture incubated at 37° C. for 20 minutes. After the 20 minute incubation, the assay mixture was aspirated and 10% acetic acid containing 150 ng/mL+3-cGMP (internal standard for LCMS) (50 μL) was added to the cells. The plate was incubated at 4° C. for 30 minutes in the acetic acid solution to stop the reaction and lyse the cells. The plates were then centrifuged at 1,000 g for 3 minutes at 4° C. and the supernatant transferred to a clean reaction plate for LCMS analysis.cGMP concentrations were determined from each sample using the LCMS conditions below (Table 5) and calculated standard curve. The standard curve was prepared in 10% acetic acid with 150 ng/mL+3cGMP (isotopically labelled cGMP with a weight 3 units higher than wild type) with the following final concentrations of cGMP in ng/mL: 1, 5, 10, 50, 100, 250, 500, 1000, 2000.
Assay type: cell-based

Compound	EC50
O=COC1c2ccc(O)cc2CCN1c1nc(-c2cc(-c3ccon3)n(Cc3ccccc3F)n2)ncc1F (centres undefined)	> 1000 nM
COC(=O)N1CCN(c2nc(-c3cc(-c4ccon4)n(Cc4ccccc4F)n3)ncc2F)C(OC=O)C1 (centres undefined)	> 1000 nM
CC(=O)c1cc(-c2ncc(F)c(N3CCC[C@H](C)[C@@H]3OC=O)n2)nn1Cc1ccccc1F	in the range around 550 nM
Fc1ccccc1Cn1nc(-c2ncc(F)c(N3CCCC4CC43)n2)cc1-c1ccon1 (centres undefined)	in the range around 550 nM
O=COC1CNCCN1c1nc(-c2cc(-c3ccon3)n(Cc3ccccc3F)n2)ncc1F (centres undefined)	> 1000 nM
COc1ccc2c(c1)CCN(c1nc(-c3cc(-c4ccon4)n(Cc4ccccc4F)n3)ncc1F)C2OC=O (centres undefined)	< 100 nM
O=CO[C@H](Cc1ccc(O)cc1)Nc1nc(-c2cc(-c3ccon3)n(Cc3ccccc3F)n2)ncc1F	> 1000 nM
C[C@H]1CCCN(c2nc(-c3cc(-c4ccon4)n(Cc4cccc(F)c4F)n3)ncc2F)[C@H]1OC=O	< 100 nM
O=COC1c2[nH]cnc2CCN1c1nc(-c2cc(-c3ccon3)n(Cc3ccccc3F)n2)ncc1F (centres undefined)	> 1000 nM

Source: ChEMBL document CHEMBL5726175, “sGC stimulators” (2019)
